According to patent US11911436B2, “Amphiphilic peptide chaperones and methods of use” (priority 2021, dated 2024):
Read-outs that look alike come from different tables or passages of the source. Marks after values point to notes of the source that are not given here. Square brackets hold non-standard residues; d marks the D form. Peptide text beside a SMILES is read from it. * marks the point of attachment. Myristoyl = CCCCCCCCCCCCCC(=O)*; dNMeL = CN[C@H](CC(C)C)C(=O)O; TMR = tetramethylrhodamine

Assays:
human red blood cells = experiment: Melittin-induced hemolysis of human RBC; format: cell-based; conditions: 2% human RBC, room temperature 30 min, OD 540 nm
Procedure: Hemolysis of human red blood cells with melittin was measured with varying concentrations of CPAMC (FIG. 3). To 0.3 mL of 2% human RBC (red blood cell) suspension was added 2 μM melittin and/or peptides taken in 0.7 mL of PBS. The tubes were incubated at room temperature for 30 min, centrifuged, and the OD of the supernatant was measured at 540 nm. PBS and PBS containing 0.1% TritonX-100 served as negative and positive control, respectively.
The protective effect of Myr-CPAMC peptide of human red blood cells (RBC) from melittin-induced hemolysis was also examined. To 0.3 mL of 2% human RBC suspension was added to melittin and/or peptide taken in 0.7 mL of PBS. The tubes were incubated at room temperature for 30 min, centrifuged (FIG. 5A) and the OD of the supernatant was measured at 540 nm. PBS and PBS containing 0.1% TritonX-100 served as negative and positive control, respectively.

ARPE-19 cells [1] = experiment: Sodium iodate cytotoxicity, cell viability imaging; format: cell-based; conditions: 7.5 mM sodium iodate, 24 hours
Procedure: Sodium iodate is a chemical that induces oxidative stress and cell death. The ability of CPPRAMC peptide to block the cytotoxic action of sodium iodate was investigated. ARPE-19 cells cultured on a 96-well plate were treated with 7.5 mM sodium iodate and/or CPPRAMC peptide for 24 hours. At the end of the incubation, cell viability imaging was done using the EarlyTox cell integrity kit (Molecular Devices, Sunnyvale, Calif.) (FIG. 6A). The percentage of dead cells in each sample was calculated from the live/dead cell imaging data using the Softmax Pro software (FIG. 6B).
The ability of Myr-CPAMC peptide to block the cytotoxic action of sodium iodate was also investigated. Authenticated ARPE-19 cells cultured on a 96-well plate were treated with 7.5 mM sodium iodate and/or Myr-CPAMC peptide for 24 hours. At the end of the incubation, cell viability imaging was done using the EarlyTox cell integrity kit (Molecular Devices, Sunnyvale, Calif.) (FIG. 7A). The percentage of dead cells in each sample was calculated from the live/dead cell imaging data using the Softmax Pro software (FIG. 7B).

ARPE-19 cells [2] = experiment: Peptide toxicity to cells, cell viability imaging; format: cell-based; conditions: increasing peptide concentrations
Procedure: Cell viability imaging was performed on cells with increasing concentrations of Myr-CPAMC, with fluorescent staining used to indicate dead cells (FIG. 9A).

[3] = test system: ARPE-19 cells, hiPSC-NSC cultures, and NSC-derived neurons
[4] = test system: wild-type C. elegans (N2); experiment: C. elegans N2 lifespan assay at 20° C. with peptide feeding; format: in vivo; conditions: N2 worms; for Median Lifespan (Days ± SE): 50 μg peptide with E. coli OP50; for Increase in median survival (%): 50 μg peptide, vs control
Procedure: A schematic of an assay of C. elegans N2 lifespan at 20° C. is shown (FIG. 10A). This involved peptide treatment (50 μg) with E. coli OP50 as a food source. Plates were changed every second day with 50 μg fresh peptide and OP50. Scoring of survival was done every day to the last day of survival. 50 mM FUdR was added in experimental plates between D1 and D5 to prevent progeny production.

C. elegans (N2 strain) = experiment: Thermotolerance assay, continuous heat stress at 35° C.; format: in vivo; conditions: N2 worms
Procedure: The lifespan of wild type C. elegans with and without peptide at a restrictive temperature was measured.
A schematic representation of the thermotolerance assay used is shown (FIG. 11A). 24 hours of 50 μg peptide treatment at 20° C. of a synchronized population of wild type C. elegans was followed by a continuous heat stress at 35° C. Worms were scored every two hours for 24 hours for survival.

CL2006 C. elegans = experiment: CL2006 lifespan at 20° C. (paralysis and death model); format: in vivo; conditions: CL2006 worms, 50 μg peptide
Procedure: CL2006 C. elegans were used as a paralysis and death model. Worms are maintained at 15° C., with adult onset paralysis induced at 20° C.
50 μg CPAMC and CPPRAMC peptide or controls were added to CL2006 worms, and the fraction left alive over time at the restrictive temperature of 20° C. was quantified (FIG. 12). […] (FIG. 12).

CL4176 C. elegans = experiment: CL4176 Aβ-induced paralysis and survival assay; format: in vivo; conditions: CL4176 worms
Procedure: CL4176 C. elegans is a temperature sensitive strain. Worms are maintained at 15° C. and shifted to increased temperature to cause Aβ-induced paralysis in adults. This has been used as a C. elegans model of Alzheimer's disease.
A scheme of a paralysis assay with CL4176 worms is shown (FIG. 13A). Peptide treatment began on CL4176 embryos and continued throughout the experiment. After 2 days at 15° C., the temperature was increased to the restrictive temperature of 25° C. Worms were scored for survival and paralysis.
Example images of paralyzed and non-paralyzed worms are shown (FIG. 13C).

[5] = test system: C. elegans wild-type (N2 strain); experiment: Paraquat (PQ)-induced oxidative stress survival; format: in vivo; conditions: five-day old N2 worms, 50 μg peptide 24 hours, 50 mM PQ
Procedure: Five-day old N2 worms were pretreated with 50 μg peptide for 24 hours and subjected to 50 mM PQ. The survival of the worms was monitored every hour under a microscope until the end of survival. […] The median survival value (50% survival) in CPPRAMC, CPAMC, and CP-SC (control) peptides corresponds to 9.6 h, 8.9 h and 5.9 h, respectively, as compared to vehicle control (5.5 h) (FIG. 14).

C. elegans (N2) worms = experiment: Juglone (JG)-induced oxidative stress survival; format: in vivo; conditions: N2 worms at day 5, 50 μg peptide 24 h, 50 μM JG
Procedure: N2 worms at day 5 pretreated for 24 h with 50 μg CPAMC or CP-SC (control) and subjected to 50 μM JG. Survival was checked every hour under a microscope until the end of survival. The median survival value in CPAMC and CP-SC (control) peptides corresponds to 7.3 h and 5.9 h, respectively, compared to vehicle control (4.9 h) (FIG. 15).

Proteinase K = Proteinase K (Parengyodontium album, UniProt P06873); experiment: Proteinase K incubation, HPLC profiles; format: in vitro ADME; conditions: 100 μg peptide, 10 μg Proteinase K, overnight
Chain of Proteinase K (P06873 106-384, species assumed): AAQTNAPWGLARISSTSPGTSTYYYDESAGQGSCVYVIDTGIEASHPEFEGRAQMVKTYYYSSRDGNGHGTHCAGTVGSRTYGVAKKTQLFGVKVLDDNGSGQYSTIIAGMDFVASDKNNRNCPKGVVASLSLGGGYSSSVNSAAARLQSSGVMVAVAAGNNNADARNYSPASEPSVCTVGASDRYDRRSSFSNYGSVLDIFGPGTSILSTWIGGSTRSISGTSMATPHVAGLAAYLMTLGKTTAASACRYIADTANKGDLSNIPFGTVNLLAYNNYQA

[6] = test system: ARPE-19 cells, hiPSC-NSC cultures, and NSC-derived neurons; experiment: Peptide entry into cells (fluorescent label); conditions: fluorescently labeled peptide

## CCCCCCCCCCCCCC(=O)N[C@@H](CCCCN)C(=O)N[C@@H](CC(C)C)C(=O)N[C@@H](Cc1ccccc1)C(=O)N[C@H](C(=O)N[C@H](C(=O)N[C@@H](Cc1ccccc1)C(=O)N[C@@H](CC(C)C)C(=O)N[C@H](C(=O)N[C@@H](Cc1c[nH]cn1)C(=O)N[C@@H](Cc1ccccc1)C(=O)N[C@@H](CO)C(=O)N1CCC[C@H]1C(=O)NCC(=O)N[C@@H](CCCNC(=N)N)C(=O)N[C@@H](CC(=O)O)C(=O)N[C@@H](CCC(=O)O)C(=O)N[C@@H](CC(=O)O)C(=O)N[C@@H](CCCCN)C(=O)N[C@@H](CC(=O)O)C(=O)N[C@@H](CCC(=O)O)C(=O)N[C@@H](CCCCN)C(N)=O)C(C)C)[C@@H](C)CC)C(C)C [Myr-CPAMC] (Myristoyl-KLFVIFLVHFSPGRDEDKDEK-NH2)
Human red blood cells
  hemolysis by melittin in presence of peptide: protects human red blood cells (RBC) from melittin-induced hemolysis
ARPE-19 cells [1]
  percentage of dead cells with sodium iodate and peptide: protects ARPE-19 cells from sodium iodate-induced cytotoxicity
ARPE-19 cells [2]
  toxicity of peptide to cells: non-toxic to cells

## Myristoyl-{K(TMR)}LFVIFLVHFSPGRDEDKDEK-NH2 (Myristoyl-K(TMR)LFVIFLVHFSPGRDEDKDEK-NH2) [Myr-(TMR)-CPAMC]
ARPE-19 cells [2]
  toxicity of peptide to cells: not toxic to cells
[3]
  entry of peptide into cells: can enter into ARPE-19 cells at different concentrations

## CH3-VPTLKdlplknvedkfhrsfvesvk-NH2 [CP-cp, reference compound]
[4]
  Median Lifespan (Days ± SE): 13.23 ± 0.20 days
  Increase in median survival (%): 0%
C. elegans (N2 strain); 35° C., 50 μg peptide, vs control
  % increase in survival: 0%
C. elegans (N2 strain); 24 hours 50 μg peptide at 20° C., then 35° C.
  Median survival ± SE (hours at 35° C.): 7.4 ± 0.4 h
CL2006 C. elegans
  Median survival ± SE (days at 20° C.): 7.0 ± 0.28 days
CL2006 C. elegans; vs control
  % increase in survival: 2.0%
CL4176 C. elegans; 25° C., vs control
  % increase in median survival: 0%
CL4176 C. elegans; 2 days at 15° C., then 25° C.
  Median survival Hours ± SE: 44.7 ± 0.4 h
[5]
  median survival value (50% survival): 5.9 h
C. elegans (N2) worms
  median survival value: 5.9 h

## CH3-DFVIFLDVKHFSPEDLTVK-NH2 (Me-DFVIFLDVKHFSPEDLTVK-NH2; SMILES CC[C@H](C)[C@H](NC(=O)[C@@H](NC(=O)[C@H](Cc1ccccc1)NC(=O)[C@H](CC(=O)O)NC)C(C)C)C(=O)N[C@@H](Cc1ccccc1)C(=O)N[C@@H](CC(C)C)C(=O)N[C@@H](CC(=O)O)C(=O)N[C@H](C(=O)N[C@@H](CCCCN)C(=O)N[C@@H](Cc1c[nH]cn1)C(=O)N[C@@H](Cc1ccccc1)C(=O)N[C@@H](CO)C(=O)N1CCC[C@H]1C(=O)N[C@@H](CCC(=O)O)C(=O)N[C@@H](CC(=O)O)C(=O)N[C@@H](CC(C)C)C(=O)N[C@H](C(=O)N[C@H](C(=O)N[C@@H](CCCCN)C(N)=O)C(C)C)[C@@H](C)O)C(C)C) [MC-αA, Parent peptide from αA crystallin]
[4]
  Median Lifespan (Days ± SE): 16.10 ± 0.25 days
  Increase in median survival (%): 20* %

## CC[C@@H](C)[C@@H](NC(=O)[C@H](NC(=O)[C@@H](Cc1ccccc1)NC(=O)[C@@H](CC(C)C)NC)C(C)C)C(=O)N[C@H](Cc1ccccc1)C(=O)N[C@H](CC(C)C)C(=O)N[C@@H](C(=O)N[C@H](Cc1c[nH]cn1)C(=O)N[C@H](Cc1ccccc1)C(=O)N[C@H](CO)C(=O)N1CCC[C@@H]1C(=O)NCC(=O)N[C@H](CCCNC(=N)N)C(=O)N[C@H](CC(=O)O)C(=O)N[C@H](CCC(=O)O)C(=O)N[C@H](CC(=O)O)C(=O)N[C@H](CCCCN)C(=O)N[C@H](CC(=O)O)C(=O)N[C@H](CCC(=O)O)C(=O)N[C@H](CCCCN)C(N)=O)C(C)C [CPPRAMC, CH3-lfviflvhfspgrdedkdek-NH2] (H-[dNMeL][dF][dV][dI][dF][dL][dV][dH][dF][dS][dP]G[dR][dD][dE][dD][dK][dD][dE][dK]-NH2; N-terminus and C-terminus assumed)
Proteinase K
  resistance to proteolytic cleavage: resistant to proteolytic cleavage
[6]
  entry of peptide into cells: readily penetrates neural cells
